This passage reports calcium oscillation score results from the OligoGym collection.

Bases are written 5' to 3'; sugars and linkages follow in the same order, as letters with counts (s phosphorothioate, o phosphodiester; PS: all linkages phosphorothioate). The collection does not say whether C is 5-methylated. l = locked nucleic acid (LNA); d = 2'-deoxy (DNA)

The nature of this series: rat primary cortical neurons, FLIPR, 25 uM ASO.
Turning to “CACAATCTAACTATTAAC (sugars l3 d12 l3, PS)”, the calcium oscillation score was 76.5 % of control.

For the sequence “CACAACTATTAAATACCAAC (sugars l3 d14 l3, PS)”, the calcium oscillation score was 83.8 % of control.

On to “CAACCAACAATACTTTAAAC (sugars l4 d12 l4, PS)”, for which the calcium oscillation score was 85.6 % of control.

Take “CCAAATCTTATAATAACTAC (sugars ldlllddddddddddlldll, PS)”: the calcium oscillation score is 80.2 % of control.

For “AAATCTATAATAACCACCAC (sugars l3 d14 l3, PS)”, the calcium oscillation score is 80.2 % of control.

Consider “TACCATACAATAACTTTAAC (sugars l3 d14 l3, PS)”, for which the calcium oscillation score was 76.5 % of control.

In the case of “TAACTAACTTAACTCAAC (sugars l3 d12 l3, PS)”, the calcium oscillation score is 74.7 % of control.

Turning to “CTAAATCCTTAATATCAAAC (sugars l4 d12 l4, PS)”, the calcium oscillation score is 79.3 % of control.

Take “CTAATATTATAACCATCAAC (sugars l3 d14 l3, PS)”: the calcium oscillation score was 82 % of control.

For the sequence “TCCACTAACCAATATAAC (sugars l3 d12 l3, PS)”, the calcium oscillation score is 76.5 % of control.

As to “CAAATCATCCATCTATAAAC (sugars l4 d12 l4, PS)”, the calcium oscillation score is 88.8 % of control.

As to “CAAACTTATATCTTTCAAAC (sugars l4 d12 l4, PS)”, the calcium oscillation score is 78.3 % of control.
